PubChem BioAssay AID2305 (GlaxoSmithKline (GSK), 2010)

Test system: P. falciparum 3D7 growth, pLDH absorbance
Assay: P. falciparum 3D7 growth inhibition, dose response, strain 3D7 (AID 2305)

**Q.** How did the IC50 turn out when `COc1ccccc1-c1cccc(-c2cccc(NC(=O)c3ccc([N+](=O)[O-])o3)c2)n1` was run?
**A.** 600 nM

**Q.** Which IC50 does the source give for `O=C(Nc1cccc(CN2CCCN(Cc3ccc(O)cc3)CC2)c1)c1cccc(C(F)(F)F)c1` here?
**A.** 310 nM

**Q.** How did the IC50 turn out when `CO/C(=C\C=C\c1cc2cc(Cl)c(Cl)cc2[nH]1)C(=O)NCCCN1CC(C)N(C)CC1C` (stereo not drawn) was run?
**A.** 1130 nM

**Q.** For `O=[N+]([O-])c1cc2c(cc1C=NNc1nc(Nc3ccccc3)nc(Nc3ccccc3)n1)OCO2`, which IC50 is on record?
**A.** 870 nM

**Q.** With `O=C(NCCc1ccccc1F)c1ccc(N2CCN(c3ccncc3)CC2)cn1` as the compound, how does the IC50 read?
**A.** 1080 nM

**Q.** `CCCN(Cc1ccc(C)cc1)Cc1cc(=O)c2cc(Cl)ccc2[nH]1` was tested. Which IC50 did it give?
**A.** 1050 nM

**Q.** For `CO/N=C(\C)c1ccc2c(c1)CCN(CCC1CCC(NC(=O)/C=C/c3ccc(F)cc3)CC1)CC2` (stereo not drawn), which IC50 is on record?
**A.** 1070 nM

**Q.** `COc1ccc(C(=O)N2CCc3cc4nccc(N5CCN6CCC[C@H]6C5)c4cc32)cc1` was tested. Which IC50 did it give?
**A.** 950 nM

**Q.** Which IC50 does the source give for `COc1ccc(CNC2Cc3ccccc3C2)cc1-c1ccc(S(=O)(=O)NCc2ccccc2)s1` here?
**A.** 830 nM

**Q.** `O=C(/C=C/c1ccc(Cl)cc1)Nc1ccc2nc(CN3CCCC3)ccc2c1` was tested. Which IC50 did it give?
**A.** 80 nM

**Q.** For `Cc1nc2ccc(/C=C/C(=O)NC3CCC(CCN4CCc5ccc(C#N)cc5CC4)CC3)cc2[nH]1` (stereo not drawn), which IC50 is on record?
**A.** 1140 nM

**Q.** For `Cc1nc(N)nc(N)c1-c1ccc(Cl)c(Cl)c1`, which IC50 is on record?
**A.** 80 nM

**Q.** For `N#Cc1cccc(C(=O)Nc2ccc(-c3nc4ccccc4[nH]3)cc2)c1`, which IC50 is on record?
**A.** 540 nM

**Q.** `CCCCCC(NCCCC)c1ccc(OCCOc2ccc(C(CCCCC)NCCCC)cc2)cc1` (stereo not drawn) was tested. Which IC50 did it give?
**A.** 1240 nM

**Q.** Which IC50 does the source give for `CN1CCCN(Cc2cccc(-c3ccc(NC(=O)c4ccc(Cl)cc4)cc3)c2)CC1` here?
**A.** 720 nM

**Q.** For `CN1CCC(NCc2ccc(-c3ccc(S(=O)(=O)NCc4ccccc4)c(F)c3)cc2)CC1`, which IC50 is on record?
**A.** 610 nM

**Q.** Which IC50 does the source give for `Clc1ccc2c(NCCc3ccccn3)ccnc2c1` here?
**A.** 830 nM

**Q.** For `CCc1cn2c3c(cc(C(=O)N[C@@H](Cc4ccccc4)[C@H](O)CNC4CCOCC4)cc13)N(CC(F)(F)F)S(=O)(=O)CC2`, which IC50 is on record?
**A.** 30 nM

**Q.** With `CN(CCCCN)Cc1ccc(-c2ccc(Cl)cc2)cc1` as the compound, how does the IC50 read?
**A.** 880 nM

**Q.** `CC(=O)N1CCC(C(=O)Nc2ccc(-c3cccc(-c4nc5ccc(C(F)(F)F)cc5[nH]4)c3)cc2)CC1` was tested. Which IC50 did it give?
**A.** 240 nM

**Q.** `CCOc1cc(C)ccc1NC1CCN(CCCCNC(=O)c2ccc(NC(=O)c3ccc(Cl)cc3)cc2)CC1` was tested. Which IC50 did it give?
**A.** 710 nM

**Q.** With `Cc1ccc(S(=O)Cc2ccc(Cl)cc2)cc1` (stereo not drawn) as the compound, how does the IC50 read?
**A.** 200 nM

**Q.** With `Cc1cc(-c2ccc(CNC3Cc4ccccc4C3)cc2)ccc1S(=O)(=O)NCCN1CCCC1` as the compound, how does the IC50 read?
**A.** 700 nM

**Q.** `CN1c2ccccc2Sc2cc(CNCCSCCNCc3ccc4c(c3)Sc3ccccc3N4C)ccc21` was tested. Which IC50 did it give?
**A.** 1010 nM

**Q.** With `O=C(NCCCCN1CCC(O)(c2ccc(Cl)cc2)CC1)c1ccc(Br)cc1` as the compound, how does the IC50 read?
**A.** 1250 nM

**Q.** For `O=C(Nc1cccc(F)c1)N[C@H]1CCN(CCCCCNC(=O)[C@@H]2C[C@H]2c2ccc(Cl)c(Cl)c2)C1`, which IC50 is on record?
**A.** 990 nM

**Q.** With `Cc1cc(C(F)(F)F)cc(-n2ncc(-c3ccc(C(=O)NCc4ccccc4N)cc3)c2N)n1` as the compound, how does the IC50 read?
**A.** 450 nM

**Q.** How did the IC50 turn out when `CCC/C=C/c1c(CNCCCNc2cc(=O)c3ccccc3[nH]2)sc(CC)c1Br` was run?
**A.** 890 nM

**Q.** For `O=C(/C=C/c1ccc(Cl)c(Cl)c1)N1CCC(CCCN2CCC(c3c[nH]c4ccccc34)CC2)CC1`, which IC50 is on record?
**A.** 710 nM

**Q.** How did the IC50 turn out when `CSc1ccc(CN2CCC(NC(=O)c3ccc(-c4cccc(C(F)(F)F)c4)s3)CC2)cc1` was run?
**A.** 1220 nM

**Q.** For `O=C(CC1CCCC1)N(CC1CCN(Cc2ccc(C(F)(F)F)cc2)CC1)c1ccc(N2CCOCC2)c(F)c1`, which IC50 is on record?
**A.** 430 nM

**Q.** For `COc1cc(Cc2cnc(N)nc2N)ccc1OCc1ccc(-c2ccccc2C#N)cc1`, which IC50 is on record?
**A.** 940 nM

**Q.** For `COc1ccc2nccc([C@@H](O)CN3CCC(NCc4cnc5snnc5c4)C(F)C3)c2c1` (stereo partly drawn), which IC50 is on record?
**A.** 1350 nM

**Q.** How did the IC50 turn out when `Cc1cccc2[nH]c(-c3ccc(-c4ccc(NC(=O)Nc5ccc(Cl)cc5)cc4)cc3)nc12` was run?
**A.** 100 nM

**Q.** With `Cc1[nH]c(C)c(-c2ccc(Oc3ccc(Cl)cc3)cc2)c(=O)c1Cl` as the compound, how does the IC50 read?
**A.** 790 nM

**Q.** How did the IC50 turn out when `c1ccn2c(Sc3ncnc4sccc34)ncc2c1` was run?
**A.** 660 nM

**Q.** For `O=C(C=Cc1ccc(Cl)c(Cl)c1)NCCCCCN1CCCC(CCCNC(=O)c2ccc3c(c2)OCO3)C1` (stereo not drawn), which IC50 is on record?
**A.** 1220 nM

**Q.** With `Cc1ccc(F)cc1S(=O)(=O)NCC(C)c1ccc(NC(=O)Nc2cccc(F)c2)cc1` (stereo not drawn) as the compound, how does the IC50 read?
**A.** 970 nM

**Q.** With `O=S(=O)(NCCN1CCCC1)c1cccc(-c2cccc(CNCc3ccsc3)c2)c1` as the compound, how does the IC50 read?
**A.** 870 nM

**Q.** For `CCc1cn2c3c(cc(C(=O)N[C@@H](Cc4ccccc4)[C@H](O)CNC4CC4)cc13)N(CC)S(=O)(=O)CC2`, which IC50 is on record?
**A.** 110 nM

**Q.** For `Cc1cc(NN=Cc2cccc(Cl)c2)c2ccccc2n1`, which IC50 is on record?
**A.** 260 nM

**Q.** How did the IC50 turn out when `CN(C)CCOc1cc(NC(=O)Nc2ccc(-c3ccncc3)c3ccccc23)ccc1I` was run?
**A.** 780 nM

**Q.** Which IC50 does the source give for `COc1ccc(-c2cnc(N)nc2N)cc1Cl` here?
**A.** 1400 nM

**Q.** How did the IC50 turn out when `CCOC(=O)[C@H](Cc1cccc2ccccc12)NC(=O)[C@H](CCC(=O)OC(C)(C)C)NC(=O)c1ccc(N(C)Cc2cnc3nc(N)nc(N)c3n2)cc1` was run?
**A.** 660 nM

**Q.** How did the IC50 turn out when `Nc1nccc2ccc(-c3ccncc3)cc12` was run?
**A.** 250 nM

**Q.** Which IC50 does the source give for `CN(C(=O)OCc1ccccc1)C1CCC(CCN2CCC3(CC2)C(=O)NCN3c2cccc(C(F)(F)F)c2)(c2ccccc2)CC1` (stereo not drawn) here?
**A.** 1180 nM

**Q.** With `CCOc1cc(C)ccc1C1CCN(CCCCNC(=O)c2coc(-c3ccc(Cl)cc3)c2)CC1` as the compound, how does the IC50 read?
**A.** 910 nM

**Q.** For `OCc1ccc(-c2cncc(Nc3ccc(F)c(Cl)c3)c2)cc1`, which IC50 is on record?
**A.** 90 nM
